Residues, ends and D or L forms follow the SMILES beside them.
How the values were obtained:
[1] = system: B. subtilis ATCC 9372; format: cell-based, Bacillus subtilis
Method: (§1) Bacteria were grown in brain heart infusion (BHI) medium broth at 37 °C. For the microdilution assay (MDA) and minimal inhibitory concentration (MIC) assay, bacteria in the mid-logarithmic phase were harvested and diluted to 4 × 10^5 CFU/mL with Dulbecco’s PBS. Bacteria were incubated with a series of 2-fold dilutions of indicated peptides or PBS for 2 h. The number of viable bacteria were enumerated by counting the colony-forming units (CFU). The MIC was defined as the lowest antimicrobial concentration which prevents the visible growth of bacteria.

[2] = system: S. aureus 8325-4; test: microdilution assay (MDA), viable counts (CFU); format: cell-based, Staphylococcus aureus; conditions: peptide 100 μM, 2 h, 4 × 10^5 CFU/mL in Dulbecco's PBS, CFU counting, N = 3
Method: as §1

[3] = system: E. coli HB101; test: microdilution assay (MDA), viable counts (CFU); format: cell-based, Escherichia coli; conditions: peptide 100 μM, 2 h, 4 × 10^5 CFU/mL in Dulbecco's PBS, CFU counting, N = 3
Method: as §1

[4] = system: E. coli HB101; format: cell-based, Escherichia coli; conditions: HB101, 2 h
Method: as §1

Molecule | antimicrobial activity, inhibition of viable counts ([1]; peptide 100 μM, 2 h, 4 × 10^5 CFU/mL in Dulbecco's PBS, CFU counting, N = 3) | antimicrobial activity, inhibition of viable counts [2] | antimicrobial activity, inhibition of viable counts [3] | percent of killing ([1]; ATCC 9372, 2 h, 100 μM) | MIC [4] [µM]
LKDVFRDFIVVCQK [Z-p1, peptide that is a part of the Zizimin protein of Drosophila melanogaster] | did not demonstrate antimicrobial activity | did not demonstrate antimicrobial activity | did not demonstrate antimicrobial activity | – | –
CC[C@H](C)[C@H](NC(=O)[C@H](CC(C)C)NC(=O)[C@H](C)NC(=O)[C@H](CCCNC(=N)N)NC(=O)[C@H](Cc1ccccc1)NC(=O)[C@H](CC(C)C)NC(=O)[C@H](CCCCN)NC(=O)[C@@H](N)CCCNC(=N)N)C(=O)N[C@@H](CCC(N)=O)C(=O)N[C@@H](C)C(=O)N[C@@H](CS)C(=O)N[C@@H](CC(=O)O)C(=O)N[C@@H](CCCNC(=N)N)C(=O)N[C@@H](CCCCN)C(=O)O [MFF-p1] (H-RKLFRALIQACDRK-OH) | – | – | – | around 90% | 6 to 12.5
